Data: patent US8853215B2, “Derivatives of N-acyl-N′-phenylpiperazine useful (inter alia) for the prophylaxis or treatment of diabetes” (Takeda Pharmaceutical Company Limited, priority 2009, dated 2014)

How the values were obtained:
human RBP4 = human RBP4 (Homo sapiens (Human), UniProt P02753); test: Binding assay by Retinol-RBP4-TTR ELISA; settings: at 10 μM compound; read-out: human RBP4 binding inhibitory activity(% at 10 μM)
Experimental: The action of the compound of the present invention to inhibit binding of RBP4 and retinol and TTR was evaluated using the Retinol-RBP4-TTR ELISA system shown below.
1F: Binding Assay by Retinol-RBP4-TTR ELISA
This ELISA system detects a complex of RBP4 and TTR based on a retinol-dependent binding of RBP4 to TTR.
His-tagged human RBP4 used was prepared in the above-mentioned 1C.
Biotinylate human TTR used was prepared in the above-mentioned 1E.
Streptavidin (20 μl) (10 μg/ml Streptavidin type II (Wako Pure Chemical Industries, Ltd.), 10 mM Tris-HCl (pH 7.5), 10 mM NaCl) was added to a 384 well black plate (Nunc MaxiSorp, Thermo Fisher Scientific Inc.), and the plate was subjected to centrifugation (1000 rpm, 1 min) and coated overnight at 4° C. The plate was washed twice with PBST (PBS, 0.05% Tween 20, 100 μl/well) and blocked with 25% Block Ace (Snow Brand Milk Products Co., Ltd., PBS, 100 μl/well). The plate was subjected to centrifugation (1000 rpm, 1 min) and incubated at room temperature for 4 hr or overnight at 4° C. The plate was washed twice with PBST (PBS, 0.05% Tween 20, 100 μl/well), and biotinylate human TTR (stock solution concentration 1.0 mg/ml) diluted 750-fold with PBST was added at 20 μl/well. The plate was subjected to centrifugation (1000 rpm, 1 min) and stood still at room temperature for 1.5 hr or overnight at 4° C. The plate was washed 3 times with PBST (100 μl/well), and His-tagged human RBP4 (stock solution concentration 0.96 mg/ml) diluted 4000-fold with a reaction buffer (50 mM Tris-HCl, 150 mM NaCl, 0.005% Tween 20, 1 mM DTT, 0.1% BSA) was added at 10 μl/well. The dilution series (8 doses from 10 mM, 200-fold concentration) of the compound was prepared with DMSO, and 1 μl of each was added to a reaction buffer (200 μl) containing retinol (50 nM) (Sigma-Aldrich Co.). A reaction buffer (200 μl) containing retinol and added with DMSO was used as a positive control, and reaction buffer (200 μl) free of retinol and added with DMSO was used as a negative control. Mixed solutions of retinol and the compound were added to the plate at 15 μl/well. The plate was stirred in a platemixer subjected to centrifugation (1000 rpm, 1 min) and reacted at room temperature for 2 hr. A 35% Block Ace solution diluted with the reaction buffer was added at 10 μl/well, centrifuged (1000 rpm, 1 min) and reacted at room temperature for 30 min. The plate was washed 3 times with PBST (100 μl/well) and SuperSignal ELISA Femto Maximum Sensitivity Substrate reagent (PIERCE, Thermo Fisher Scientific Inc.) was added at 30 μl/well, and the luminescence was measured by a platereader (Wallac).
The binding inhibitory activity of the compound was determined by 100×(positive control value-test compound value)/(positive control value-negative control value). The binding activity (IC50) was calculated from the binding inhibitory rate at each compound concentration using a graph drawing software, GraphPad Prism (GraphPad Software Inc.).

RBP4 = RBP4 (Mus musculus (Mouse), UniProt Q00724); test: Single administration test in mice, plasma RBP4 by ELISA; format: in vivo; settings: male C57BL/6J or ICR mice, 50 mg/kg oral single dose, mean±SD; for RBP4 (% of initial/Control) 0 hr: 0 hr (just before the administration); for RBP4 (% of initial/Control) 4 hr: 4 hr after administration; for RBP4 (% of initial/Control) 7 hr: 7 hr after administration; for RBP4 (% of initial/Control) 24 hr: 24 hr after administration
Experimental: The action of the compounds of the present invention to reduce plasma RBP4 level was evaluated using the animal model shown below.
Male C57BL/6J and ICR mice were purchased from Charles River (Japan) and maintained on a normal diet (CE2, CLAE Japan, Inc.) and tap water. Animals were housed in a temperature-controlled room adjusted to a 12-hour light/12-hour dark cycle beginning at 7:00 and 19:00, respectively. All procedures were conducted according to the experimental animal care use committee of Takeda Pharmaceutical Company.
Male 6-12-week-old C57BL/6J or ICR mice were housed individually and fed CE2 for 4-6 days. After acclimatization, mice were divided into groups based on their body weight. Compounds were suspended in 0.5% (w/v) methylcellulose in water and given orally to mice at a dose of 50 mg/10 mL/kg of body weight (three to five mice per group). Blood samples were obtained from orbital vein with sodium heparin as an anticoagulant at time 0 hr (just before the administration), 4 hr, 7 hr, and 24 hr after the administration, followed by plasma separation by centrifugation. Plasma RBP4 levels were measured by enzyme-linked immunosorbent assay described in the following section.
Plasma samples were analyzed in duplicate for RBP4 by an enzyme-linked immunosorbent assay. Mouse recombinant RBP4 (Takeda Pharmaceutical Company) was used as standards, and the assay range was 0.313-20 ng/ml. Samples were diluted 10,000-fold with phosphate-buffered saline (PBS) (Sigma) containing 10% (w/v) BlockAce (Dainippon Sumitomo Pharma Co., Ltd). Rabbit anti-RBP4 polyclonal antibody (100 μL/well of 50 μg/mL, Hokudo Co, Ltd) was incubated in a 96-well plate (Nalge Nunc International K.K.) for overnight at 4° C. Subsequently, the plates were washed with PBS-T (Wako Pure Chemical Industries, Ltd.) and blocked with PBS containing 25% BlockAce for 1 hr at room temperature. After another washing with PBS-T, samples and standards were applied to the well, and the plates were incubated for 2 hr at room temperature. After a washing the wells, peroxidase-labeled (Dojindo Laboratories) anti-RBP4 (100 μL/well) was added to the wells, and then the plates were incubated for 1 hr at room temperature. After a final washing with PBS-T, substrate solution 3,3,5,5-tetramethylbenzidine (Sigma) was added to the wells, and the plates were placed in the dark for 5-20 min at room temperature. The reaction was stopped with 0.5 M sulphuric acid and the optical density was measured with a spectrophotometer at 450 nm. The changes in plasma RBP4 levels were expressed as % of initial/Control. All data are presented as mean±SD.

| Structure (SMILES) | inhibition at 10 µM (human RBP4) [%] | RBP4 (% of initial/Control) 0 hr (RBP4) | RBP4 (% of initial/Control) 4 hr (RBP4) | RBP4 (% of initial/Control) 7 hr (RBP4) | RBP4 (% of initial/Control) 24 hr (RBP4) |
| --- | --- | --- | --- | --- | --- |
| CC(C)(C)c1ccccc1N1CCN(C(=O)Cn2cnnn2)CC1 [Example 94, 1-(2-tert-Butylphenyl)-4-(1H-tetrazol-1-ylacetyl)piperazine] | 100 | 100.0 ± 21.7 % of initial/Control | 45.7 ± 0.8 % of initial/Control | 58.9 ± 5.1 % of initial/Control | 89.2 ± 11.6 % of initial/Control |
| CC(C)(C)c1ccccc1N1CCN(C(=O)c2ncoc2CCC(=O)O)CC1 [Example 178, 3-(4-{[4-(2-tert-Butylphenyl)piperazin-1-yl]carbonyl}-1,3-oxazol-5-yl)propanoic acid] | 100 | 100.0 ± 12.8 % of initial/Control | 70.1 ± 1.8 % of initial/Control | 67.0 ± 2.6 % of initial/Control | 123.3 ± 14.2 % of initial/Control |
| CC(C)(C)c1cc(Cl)ccc1N1CCN(C(=O)C(=O)O)CC1 [Example 180, [4-(2-tert-Butyl-4-chlorophenyl)piperazin-1-yl](oxo)acetic acid] | 100 | 100.0 ± 23.0 % of initial/Control | 63.0 ± 2.0 % of initial/Control | 61.0 ± 2.2 % of initial/Control | 93.0 ± 9.6 % of initial/Control |
| CC(C)(C)c1ccccc1N1CCN(C(=O)C(=O)N2CCC(C(=O)O)C2)CC1 (centres unmarked) [Example 191, 1-{[4-(2-tert-Butylphenyl)piperazin-1-yl](oxo)acetyl}pyrrolidine-3-carboxylic acid] | 100 | 100.0 ± 8.0 % of initial/Control | 65.0 ± 2.2 % of initial/Control | 61.2 ± 2.3 % of initial/Control | 127.6 ± 40.9 % of initial/Control |
| CC(C)(C)c1ccccc1N1CCN(C(=O)C(=O)Nc2ccc(CCC(=O)O)cc2)CC1 [Example 197, 3-[4-({[4-(2-tert-Butylphenyl)piperazin-1-yl](oxo)acetyl}amino)phenyl]propanoic acid] | 100 | 100.0 ± 22.3 % of initial/Control | 72.2 ± 3.6 % of initial/Control | 67.0 ± 1.8 % of initial/Control | 91.3 ± 15.9 % of initial/Control |
| CC(C)(C)c1ccccc1N1CCN(C(=O)C(=O)Nc2ccc(OCC(=O)O)cc2)CC1 [Example 201, [4-({[4-(2-tert-Butylphenyl)piperazin-1-yl](oxo)acetyl}amino)phenoxy]acetic acid] | 99 | 100.0 ± 9.8 % of initial/Control | 65.0 ± 0.7 % of initial/Control | 60.3 ± 1.0 % of initial/Control | 100.2 ± 13.6 % of initial/Control |
| CC(C)(C)c1ccccc1N1CCN(C(=O)C(=O)NCCc2ccc(C(=O)O)cc2)CC1 [Example 203, 4-[2-({[4-(2-tert-Butylphenyl)piperazin-1-yl](oxo)acetyl}amino)ethyl]benzoic acid] | 100 | 100 ± 2.82 % of initial/Control | 43.4 ± 1.8 % of initial/Control | 37.2 ± 1.0 % of initial/Control | 107.9 ± 15.6 % of initial/Control |
| Cc1nc(C(=O)N2CCN(c3ccccc3C(C)(C)C)CC2)cn1CC(=O)O [Example 205, (4-{[4-(2-tert-Butylphenyl)piperazin-1-yl]carbonyl}-2-methyl-1H-imidazol-1-yl)acetic acid] | 100 | 100.0 ± 18.9 % of initial/Control | 66.3 ± 5.7 % of initial/Control | 75.0 ± 10.8 % of initial/Control | 125.7 ± 20.9 % of initial/Control |
| CC(C)(C)c1cc(Cl)ccc1N1CCN(C(=O)CC(=O)O)CC1 [Example 207, 3-[4-(2-tert-Butyl-4-chlorophenyl)piperazin-1-yl]-3-oxopropanoic acid] | 100 | 100.0 ± 27.4 % of initial/Control | 43.1 ± 1.7 % of initial/Control | 37.6 ± 0.7 % of initial/Control | 52.0 ± 2.8 % of initial/Control |
| CC(C)(C)c1cc(Cl)ccc1N1CCN(C(=O)c2ccc(OCC(=O)O)cn2)CC1 [Example 210, [(6-{[4-(2-tert-Butyl-4-chlorophenyl)piperazin-1-yl]carbonyl}pyridin-3-yl)oxy]acetic acid] | 99 | 100.0 ± 10.5 % of initial/Control | 55.3 ± 4.0 % of initial/Control | 54.9 ± 8.8 % of initial/Control | 97.6 ± 24.5 % of initial/Control |
